Measurements from US10045999B2, “Nutritional composition for the stimulation of muscle protein synthesis” (N. V. Nutricia, priority 2010, dated 2018).
Marks after values point to notes of the source that are not given here.

Tested on: C2C12 myotubes
Assay: Protein synthesis rate (FSR) in C2C12 myotubes after pretreatment with 1,25(OH)2 Vitamin D3, with or without leucine and insulin
Type: cell-based, mouse
Conditions: for increase in muscle protein synthesis rate: C2C12 myotubes treated only with vitamin D3, with leucine alone, or with both; for change (%) in protein synthesis rate vs no pretreatment with vitamin D3: 72 h pretreatment
Method: An experimental in vitro study is performed to evaluate the synergistic or additional action of leucine and vitamin D on intracellular pathways regulating protein synthesis in muscle cells.
C2C12 mouse myoblasts are obtained from the American Type Culture Source Collection (no. CRL-1772). Myoblasts are cultured at 37° C. in an atmosphere of 5% CO2 in grown medium consisting of Dulbecco's modified Eagle's medium (DMEM) supplemented with 10% foetal calf serum and antibiotics. Myotube C2C12 differentiation is induced by withdrawing foetal calf serum from confluent cells and adding 10 μg/ml insulin, 5 μg/ml transferrin and 2% horse serum.
Confluent C2C12 myotubes are treated with vehicles alone or with different doses of 1,25(OH)2 D3. Subsequently, the cells are deprived of horse serum by incubation in a serum-free medium for the two remaining hours. During this deprivation period, different amounts of leucine and insulin are added to the medium before harvesting cells.
Medium with or without leucine supplementation are used to assess the synergistic or additional action of leucine and vitamin D on intracellular pathways regulating protein synthesis (Akt, mTOR) and/or on direct measure of protein synthesis.
Protein synthesis rate (FSR) in C2C12 myotubes after 72 h pretreatments with 0, 1 or 10 nm of 1,25(OH)2 Vitamin D3 is depicted in FIG. 1.
FIG. 1: Protein synthesis rate (FSR) in C2C12 myotubes after 72 h pretreatments with 0, 1 or 10 nm of 1,25(OH)2 Vitamin D3.

Structure (SMILES) | increase in muscle protein synthesis rate | effect on muscle protein synthesis (in words) (C2C12 myotubes, vitamin D3 dose 1 or 10 nM) | change (%) in protein synthesis rate vs no pretreatment with vitamin D3 ([Vitamin D] = 1 nM, Ins + leu, vs [Vit D] = 0 Ins + leu) | change (%) in protein synthesis rate vs no pretreatment with vitamin D3 ([Vitamin D] = 1 nM, No stim, vs [Vit D] = 0 No stim) | change (%) in protein synthesis rate vs no pretreatment with vitamin D3 ([Vitamin D] = 10 nM, Ins + leu, vs [Vit D] = 0 Ins + leu) | change (%) in protein synthesis rate vs no pretreatment with vitamin D3 ([Vitamin D] = 10 nM, No stim, vs [Vit D] = 0 No stim)
C=C1/C(=C\C=C2/CCC[C@]3(C)[C@@H]([C@H](C)CCCC(C)(C)O)CC[C@@H]23)C[C@@H](O)C[C@@H]1O [Vitamin D, 1,25-dihydroxycholecalciferol] | 14.3% | can stimulate muscle protein synthesis independently of leucine presence | 9.8* % | 14.0* % | 14.3* % | 14.3* %
CC(C)C[C@H](N)C(=O)O [leucine, L-leucine] | 10.7% |  |  |  |  | 
